Results taken from patent US9371295B2, “Compounds for use in the treatment of disorders that are ameliorated by inhibition of HDAC” (IRBM—Science Park S.p.A., priority 2012, dated 2016).
Where “and” joins values, the source holds several entries; their conditions need not be identical. Equal entries are not always repeated.

Tests used:
[1] = tested on: erythroid precursor cells (ErPC) from β-thalassemia patients; assay: Fetal hemoglobin production in erythroid precursor cells from β-thalassemia patients (HPLC); type: cell-based, human
Text: Stimulation of the production of mRNA for γ-globin in human erythroid precursors isolated from peripheral blood was detected by using the technique by Fibach (Fibach, E. Hemoglobin, 1998, 22, 445-458; Blood, 1993, 81, 1630-1635). Blood samples were obtained from subjects after written informed consent and the local ethical commette approved the study. This technique provides for two stages: in the first stage, the cells isolated from peripheral blood of an healthy subject or a subject suffering from a hemopoietic pathology, such as sickle cell anaemia or beta-thalassemia, are sown in a culture medium to which 10% of conditioned medium derived from the vescicle carcinoma cell line 5637 has been added. The second stage consists in cultivating the isolated cells in a suitable culture medium, supplemented with erythropoiethin. In short, mononuclear cells were isolated from peripheral blood samples of normal donors and patients by Ficoll-Hypaque density gradient centrifugation and seeded in alpha-minimal essential medium (Sigma-Aldrich) supplemented with 10% FBS (Analitica de Mori), 1 μg/mL cyclosporin A (Sigma-Aldrich), and 10% conditioned medium from the 5637 bladder carcinoma cell line and 10 ng/ml stem cell factor (PeproTech EC Ltd, London, England). After 7-day incubation in this phase I culture, the non-adherent cells were harvested, washed, and recultured in fresh medium composed of α-medium, 30% FBS, 1% de-ionized bovine serum albumin (Sigma-Aldrich), 10^−5 M β-mercaptoethanol, 2 mM L-glutamine, 10^−6 M dexamethasone, 1 U/ml human recombinant erythropoietin (Tebu-bio, Magenta, MI, Italy) and 10 ng/ml stem cell factor. This part of the culture is referred to as phase II. Compounds were added on day 4-5 of phase II and cells were harvested on day 12. All cultures were incubated at 37° C., under an atmosphere of 5% CO2 in air, with extra humidity. The expression of the genes encoding for γ-globin was evaluated by quantitative RT-PCR. The production of HbF was analyzed by HPLC. […]

[2] = Rat PK studies, oral dose; type: in vivo, Sprague-Dawley rats; conditions: male, Sprague-Dawley, plasma, po 10 mg/kg
Method: Rats Male Sprague-Dawley rats (250-350 g) were used for the absorption disposition studies. In each rat an indwelling cannula was implanted in the right jugular vein for blood sampling. The surgery was performed under light anaesthesia (Ketamine-Xilazine (85 mg/kg and 2.5 mg/kg respectively i.m.) one day prior the experiment). During the kinetic study, all animals were housed individually in plastic metabolism cages, and were unrestrained throughout the experiment. Compounds (6 mg/mL) were dissolved in 20% DMSO/60% PEG400/20% water for intravenous administration, and dissolved or suspended in 1% methylcellulose for oral administration (2 mg/ml). After an overnight fast, the rats received an i.v. (via caudal vein) or an oral dose of the compound. Blood samples were collected at different times point after dosing. Plasma was separated immediately after blood sampling by centrifugation, and the plasma samples were kept frozen (−20° C.) until assayed by LC/MS/MS.
Analytical procedures: Plasma samples were extracted using Liquid Handling Robot MultiProbe Packard by protein precipitation with acetonitrile. Then the samples were centrifuged (3000 rpm×15 min at 4° C.) and the supernatant transferred and dried under nitrogen. The samples were reconstituted in water/acetonitrile 90/10 and then injected directly into an HPLC column. Sample analyses were performed using a an API 3000 or/and API 2000 or/and API 4000 Mass Spectrometer interfaced via the Turbo Ion Spray (ESI)/APCI to an LC system consisting of an HTS PAL CTC autosampler and an Agilen HP 1100 Binary Pump. The results are calculated using Analyst Software linear regression with 1/x*x weighting. The Assay Precision was calculated for the Quality Controls by Watson Lims database.
Pharmacokinetic Analysis: The plasma clearance (CLp) of the compounds were calculated (using Watson PK program) as the dose divided by the area under the plasma concentration-time curve from time zero to infinity (AUC0-∞). The apparent half-life was estimated from the slope of the terminal phase of the log plasma concentration-time data. The volume of distribution (Vdss) was determined using the following noncompartmental method: Vdss=(Dose IV×AUMC)/(AUC0-∞)2
where AUMC is the total area under the first moment of the drug concentration time curve from time zero to infinity. Bioavailability was estimated as the AUC0-∞ ratio following oral and intravenous administration, normalized for differences in dose.

CCC(=O)CCCCC[C@H](NC(=O)C1CN(C)C1)c1ncc(-c2cc3ccccc3nc2OC)o1 [Compound 2, (S)-N-(1-(5-(2-methoxyquinolin-3-yl)oxazol-2-yl)-7-oxononyl)-1-methylazetidine-3-carboxamide]
% of fetal hemoglobin production ([1]; ErPC from β-thalassemia patients 1-3 (one line per patient), 100 nM): 78.6% and 85.5% and 81.5%
proportion of HbF in lysates (cation-exchange HPLC, FIG. 1) ([1]; ErPC from β-thalassemic patients, 100 nM, in words): Increase in the proportion of HbF is detectable
induction of HbF in erythroid precursor cells (ErPC) ([1]; ErPC from β-thalassemic patients, in words): strong inducer of HbF
AUC [2]: 40 µM·h
Cmax [2]: 2790 nM
